Measurements: patent US11505548B2, “Heterocyclic compounds and their use for treatment of helminthic infections and diseases” (Celgene Corporation, priority 2019, dated 2022)
Where two headings read alike, the source gives them in different places.

System: Onchocerca gutturosa Adult Male Worms
Experiment: Onchocerciasis in vitro screening model, worm motility score
Format: cell-based
Conditions: read-out: O. gutturosa activity level (IC50 or MED)
[1] = in vitro, Onchocerca gutturosa adult male worms, class A/B/C
[2] = Onchocerca gutturosa, Table 1 O. gutturosa, levels A/B/C, motility or MTT readout not specified

SMILES | IC50 [1] [µM] | IC50 [2] [µM]
COC(=O)c1cccnc1Nc1nc(-c2ccc(OC(C)C)cn2)ns1 [Compound 276, methyl 2-(3-(5-isopropoxy-pyridin-2-yl)-1,2,4-thiadiazol-5-ylamino) nicotinate] | 0.5 to 5 | 
Cc1cnc(Nc2nc(-c3cc(C(N)=O)c(OC(C)C)cn3)ns2)c(C(F)(F)F)c1 [Compound 252, 5-isopropoxy-2-(5-(5-methyl-3-(trifluoro-methyl)pyridin-2-ylamino)-1,2,4-thiadiazol-3-yl)isonico-tinamide] | 0.5 to 5 | 
CC(C)Oc1ccc(-c2nsc(Nc3ncccc3C3CC3)n2)nc1 [Compound 76, N-(3-cyclopropyl-pyridin-2-yl)-3-(5-isopropoxy-pyridin-2-yl)-1,2,4-thiadiazol-5-amine] |  | < 0.2
COc1cccnc1Nc1nc(-c2cc(C(F)(F)F)c(OC3CC3)cn2)ns1 [Compound 134, 3-(5-cyclo-propoxy-4-(trifluoromethyl)pyridin-2-yl)-N-(3-methoxy-pyridin-2-yl)-1,2,4-thiadiazol-5-amine] |  | 0.5 to 5
CC(=O)N(C)c1cccnc1Nc1nc(-c2cc(C)ccn2)ns1 [Compound 208, N-methyl-N-(2-(3-(4-methylpyridin-2-yl)-1,2,4-thiadiazol-5-ylamino)pyridin-3-yl)acetamide] | 0.5 to 5 | 
CC(C)c1cnc(Nc2nc(-c3ncccc3OC3CC3)ns2)cc1C(F)(F)F [Compound 97, 3-(3-cycloprop-oxypyridin-2-yl)-N-(5-isopropyl-4-(trifluoromethyl)pyridin-2-yl)-1,2,4-thiadiazol-5-amine] |  | < 0.2
FC(F)(F)c1ccnc(Nc2nc(-c3cc(C4CC4)ccn3)ns2)c1 [Compound 85, 3-(4-cyclopropyl-pyridin-2-yl)-N-(4-(trifluoromethyl)pyridin-2-yl)-1,2,4-thiadiazol-5-amine] |  | < 0.2
COc1ccnc(-c2nsc(Nc3ccc(C(F)(F)F)cn3)n2)c1 [Compound 176, 3-(4-methoxy-pyridin-2-yl)-N-(5-(trifluoromethyl)pyridin-2-yl)-1,2,4-thiadiazol-5-amine] |  | < 0.2
CC(C)Oc1ccc(-c2nsc(Nc3ncccc3N(C)C(=O)C3CCCC3)n2)nc1 [Compound 172, N-(2-(3-(5-isopropoxy-pyridin-2-yl)-1,2,4-thiadiazol-5-ylamino)pyridin-3-yl)-N-methylcyclo-pentane-carboxamide] |  | < 0.2
CC(=O)N1CCc2cc(-c3nsc(Nc4ncccc4C(F)(F)F)n3)ncc21 [Compound 267, 1-(5-(5-(3-(trifluoromethyl)pyridin-2-ylamino)-1,2,4-thiadiazol-3-yl)-2,3-dihydro-1H-pyrrolo[2,3-c]pyridin-1-yl)ethanone] | 0.5 to 5 | 
CN1CCC(Oc2ccnc(-c3nsc(Nc4ncccc4C(F)(F)F)n3)c2)CC1 [Compound 62, 3-(4-(1-methyl-piperidin-4-yloxy)pyridin-2-yl)-N-(3-(trifluoromethyl)pyridin-2-yl)-1,2,4-thiadiazol-5-amine] |  | < 0.2
CC(C)COc1cnc(-c2nsc(Nc3ncccc3N(C)C)n2)cn1 [Compound 150, N2-(3-(5-isobutoxy-pyrazin-2-yl)-1,2,4-thiadiazol-5-yl)-N3,N3-dimethyl-pyridine-2,3-diamine] |  | 0.5 to 5
CC(=O)N(C)c1cccnc1Nc1nc(-c2ccc(OC(C)C)cn2)ns1 [Compound 157, N-(2-(3-(5-isopropoxy-pyridin-2-yl)-1,2,4-thiadiazol-5-ylamino)pyridin-3-yl)-N-methyl-acetamide] |  | 0.5 to 5
COc1ccc(Nc2nc(-c3ccccn3)ns2)nc1 [Cmpd 2, N-(5-methoxy-pyridin-2-yl)-3-(pyridin-2-yl)-1,2,4-thiadiazol-5-amine] |  | 0.5 to 5
c1ccc(-c2nsc(Nc3ccc(OC4CCOCC4)cn3)n2)nc1 [Cmpd 9, 3-(pyridin-2-yl)-N-(5-(tetrahydro-2H-pyran-4-yloxy)pyridin-2-yl)-1,2,4-thiadiazol-5-amine] |  | 0.5 to 5
CC(=O)N(C)c1cc(C(F)(F)F)cnc1Nc1nc(-c2ccc(OC(C)C)cn2)ns1 [Compound 247, N-(2-(3-(5-isopropoxy-pyridin-2-yl)-1,2,4-thiadiazol-5-ylamino)-5-(trifluoro-methyl)pyridin-3-yl)-N-methylacetamide] | < 0.2 | 

The next lines start with the values.

IC50 [1] [µM] | IC50 [2] [µM] | SMILES
 | 0.5 to 5 | CC(C)c1cccnc1Nc1nc(-c2ccc(F)cn2)ns1 [Compound 128, 3-(5-fluoro-pyridin-2-yl)-N-(3-isopropyl-pyridin-2-yl)-1,2,4-thiadiazol-5-amine]
 | < 0.2 | Fc1cccnc1-c1noc(Nc2cc(C(F)(F)F)ccn2)n1 [Compound 27, 3-(3-fluoropyridin-2-yl)-N-(4-(trifluoro-methyl)pyridin-2-yl)-1,2,4-oxadiazol-5-amine]
0.5 to 5 |  | CC(C)Oc1ccc(-c2nsc(Nc3ncccc3S(=O)(=O)N(C)C)n2)nc1 [Compound 321, 2-(3-(5-isoprop-oxypyridin-2-yl)-1,2,4-thiadiazol-5-ylamino)-N,N-dimethyl-pyridine-3-sulfonamide]
 | 0.5 to 5 | Cc1cccnc1Nc1nnc(-c2cc(OC(C)C)ccn2)s1 [Compound 173, 5-(4-isopropoxy-pyridin-2-yl)-N-(3-methyl-pyridin-2-yl)-1,3,4-thia-diazol-2-amine]
0.5 to 5 |  | CC(C)Oc1cnc(-c2nsc(Nc3ncccc3C(=O)N(C)C)n2)cc1C(F)(F)F [Compound 225, 2-(3-(5-isopropoxy-4-(trifluoromethyl)pyridin-2-yl)-1,2,4-thiadiazol-5-ylamino)-N,N-dimethyl-nicotinamide]
 | 0.5 to 5 | CC(C)Oc1ccc(-c2n[nH]c(Nc3ncccc3N(C)C)n2)nc1 [Compound 140, N2-(3-(5-isoprop-oxypyridin-2-yl)-1H-1,2,4-triazol-5-yl)-N3,N3-dimethyl-pyridine-2,3-diamine]
 | 0.5 to 5 | Cc1ccnc(Nc2nc(-c3ncccc3C(F)(F)F)ns2)c1 [Compound 13, N-(4-methyl-pyridin-2-yl)-3-(3-(trifluoro-methyl)pyridin-2-yl)-1,2,4-thiadiazol-5-amine]
 | 0.5 to 5 | Cc1cccnc1Nc1nc(-c2ccc(C3CCN(C)CC3)cn2)ns1 [Compound 48, 3-(5-(1-methyl-piperidin-4-yl)pyridin-2-yl)-N-(3-methylpyridin-2-yl)-1,2,4-thiadiazol-5-amine]
 | 0.2 to 0.5 | CNc1cccnc1Nc1nc(-c2ccc(OC3CCN(C)CC3)cn2)ns1 [Compound 53, N3-methyl-N2-(3-(5-(1-methyl-piperidin-4-yloxy)pyridin-2-yl)-1,2,4-thiadiazol-5-yl) pyridine-2,3-diamine]
 | 0.5 to 5 | CC(C)Oc1cnc(-c2nnc(Nc3ncccc3N(C)C)o2)cc1C(F)(F)F [Compound 160, N2-(5-(5-isopropoxy-4-(trifluoromethyl)pyridin-2-yl)-1,3,4-oxadiazol-2-yl)-N3,N3-dimethyl-pyridine-2,3-diamine]
0.5 to 5 |  | CC(C)Oc1cccnc1-c1nsc(Nc2ncc(C(F)(F)F)cc2C(=O)N(C)C)n1 [Compound 281, 2-(3-(3-isoprop-oxypyridin-2-yl)-1,2,4-thiadiazol-5-ylamino)-N,N-dimethyl-5-(trifluoromethyl) nicotinamide]
 | 0.2 to 0.5 | CN(C)c1cccnc1Nc1nc(-c2ncccc2OC2CC2)ns1 [Compound 117, N2-(3-(3-cycloprop-oxypyridin-2-yl)-1,2,4-thiadiazol-5-yl)-N3,N3-dimethyl-pyridine-2,3-diamine]
 | 0.5 to 5 | CN1CCC(Oc2ccc(-c3nsc(Nc4ncccn4)n3)nc2)CC1 [Compound 36, 3-(5-(1-methyl-piperidin-4-yloxy)pyridin-2-yl)-N-(pyrimidin-2-yl)-1,2,4-thiadiazol-5-amine]
< 0.2 |  | CC(=O)N(C)c1cnc(Nc2nc(-c3cc4c(cn3)N(C(C)C)CC4)ns2)c(C(F)(F)F)c1 [Compound 299, N-(6-(3-(1-isopropyl-2,3-dihydro-1H-pyrrolo[2,3-c]pyridin-5-yl)-1,2,4-thiadiazol-5-ylamino)-5-(trifluoromethyl)pyridin-3-yl)-N-methylacetamide]
0.5 to 5 |  | CC(=O)N(C)c1cccnc1Nc1nc(-c2ccc(OC3CCOCC3)cn2)ns1 [Compound 199, N-methyl-N-(2-(3-(5-(tetrahydro-2H-pyran-4-yloxy)pyridin-2-yl)-1,2,4-thiadiazol-5-ylamino)pyridin-3-yl)acetamide]
 | < 0.2 | Cc1cccnc1Nc1nc(-c2ccc(OC3CC3)cn2)n(C)n1 [Compound 103, N-(5-(5-cyclopropoxy-pyridin-2-yl)-1-methyl-1H-1,2,4-triazol-3-yl)-3-methyl-pyridin-2-amine]
< 0.2 |  | CC(=O)N(C)c1cc(C(F)(F)F)cnc1Nc1nc(-c2ccccn2)ns1 [Compound 325, N-methyl-N-(2-(3-(pyridin-2-yl)-1,2,4-thiadiazol-5-ylamino)-5-(trifluoromethyl)pyridin-3-yl)acetamide]
 | 0.2 to 0.5 | CC(C)Oc1ccc(-c2nsc(Nc3ncccc3N(C)C(=O)C(C)C)n2)nc1 [Compound 169, N-(2-(3-(5-isopropoxy-pyridin-2-yl)-1,2,4-thiadiazol-5-ylamino)pyridin-3-yl)-N-methyliso-butyramide]
0.5 to 5 |  | CN(C)C(=O)c1cc(C(F)(F)F)cnc1Nc1nc(-c2cc3c(cn2)N(C)C(=O)C3(C)C)ns1 [Compound 292, N,N-dimethyl-5-(trifluoromethyl)-2-(3-(1,3,3-trimethyl-2-oxo-2,3-dihydro-1H-pyrrolo[2,3-c]pyridin-5-yl)-1,2,4-thiadiazol-5-ylamino) nicotinamide]
0.5 to 5 |  | Cc1cccnc1Nc1nc(-c2cc(C(C)C)c(C(=O)N(C)C)cn2)ns1 [Compound 230, 4-isopropyl-N,N-dimethyl-6-(5-(3-methyl-pyridin-2-ylamino)-1,2,4-thiadiazol-3-yl)nicotinamide]
< 0.2 |  | CC(C)c1cnc(Nc2nc(-c3cc4c(cn3)N(C)CC4)ns2)c(C(F)(F)F)c1 [Compound 323, N-(5-isopropyl-3-(trifluoromethyl)pyridin-2-yl)-3-(1-methyl-2,3-dihydro-1H-pyrrolo[2,3-c]pyridin-5-yl)-1,2,4-thiadiazol-5-amine]
 | 0.2 to 0.5 | COc1ccc(-c2nsc(Nc3cc(C(F)(F)F)c(C(C)C)cn3)n2)nc1 [Compound 66, N-(5-isopropyl-4-(trifluoromethyl)pyridin-2-yl)-3-(5-methoxy-pyridin-2-yl)-1,2,4-thiadiazol-5-amine]
